# Reference: PubChem BioAssay (NCI)
#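 All cell lines were grown in 96-well plates and treated with compound for 48 hours. TGI denotes the concentration required for complete inhibition of growth.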
# Columns and labels:
# Test in all cases: NCI-60 cell line screen, 48 h
# EKVX NSCLC = test system: EKVX NSCLC
# HCT-15 colon = test system: HCT-15 colon
# OVCAR-3 ovarian = test system: OVCAR-3 ovarian
# SK-MEL-5 melanoma = test system: SK-MEL-5 melanoma
# LOX IMVI melanoma = test system: LOX IMVI melanoma
# CCRF-CEM leukemia = test system: CCRF-CEM leukemia
# M14 melanoma = test system: M14 melanoma
# SK-OV-3 ovarian = test system: SK-OV-3 ovarian
# KM12 colon = test system: KM12 colon
# NCI-H226 lung = test system: NCI-H226 lung
# RXF 393 renal = test system: RXF 393 renal
compound,measurement,setting,value
CC(=O)OCC1OC(n2c(=S)[nH]c(-c3ccccc3)c(C#N)c2=O)C(OC(C)=O)C(OC(C)=O)C1OC(C)=O (stereo not drawn),TGI,EKVX NSCLC,> 100 µM
same,TGI,HCT-15 colon,> 100 µM
same,TGI,OVCAR-3 ovarian,> 100 µM
same,TGI,SK-MEL-5 melanoma,> 100 µM
same,TGI,LOX IMVI melanoma,> 100 µM
same,TGI,CCRF-CEM leukemia,> 100 µM
same,TGI,M14 melanoma,> 100 µM
same,TGI,SK-OV-3 ovarian,> 100 µM
same,TGI,KM12 colon,> 100 µM
same,TGI,NCI-H226 lung,> 100 µM
same,TGI,RXF 393 renal,> 100 µM
CCOC(=O)C1C(=O)CC(O)(c2ccccc2)C(C(=O)OCC)C1c1ccc(OC)cc1 (stereo not drawn),TGI,EKVX NSCLC,> 100 µM
same,TGI,HCT-15 colon,> 100 µM
same,TGI,OVCAR-3 ovarian,42.8 µM
same,TGI,SK-MEL-5 melanoma,> 100 µM
same,TGI,LOX IMVI melanoma,> 64.7 µM
same,TGI,CCRF-CEM leukemia,79.2 µM
same,TGI,M14 melanoma,82.9 µM
same,TGI,SK-OV-3 ovarian,89.9 µM
same,TGI,KM12 colon,39.8 µM
same,TGI,NCI-H226 lung,> 100 µM
same,TGI,RXF 393 renal,50.5 µM
Cc1nc2cc(C(F)(F)F)ccc2[nH]c1=O,TGI,EKVX NSCLC,> 100 µM
same,TGI,HCT-15 colon,> 100 µM
same,TGI,OVCAR-3 ovarian,> 100 µM
same,TGI,SK-MEL-5 melanoma,> 100 µM
same,TGI,LOX IMVI melanoma,> 100 µM
same,TGI,CCRF-CEM leukemia,> 100 µM
same,TGI,M14 melanoma,> 100 µM
same,TGI,SK-OV-3 ovarian,> 100 µM
same,TGI,KM12 colon,> 100 µM
same,TGI,NCI-H226 lung,> 100 µM
same,TGI,RXF 393 renal,> 100 µM
CCOC(=O)c1cnc2[nH]ccn2c1=O,TGI,EKVX NSCLC,> 10 µM
same,TGI,HCT-15 colon,> 10 µM
same,TGI,OVCAR-3 ovarian,> 10 µM
same,TGI,SK-MEL-5 melanoma,> 10 µM
same,TGI,LOX IMVI melanoma,> 10 µM
same,TGI,CCRF-CEM leukemia,> 10 µM
same,TGI,M14 melanoma,> 10 µM
same,TGI,SK-OV-3 ovarian,> 10 µM
same,TGI,KM12 colon,> 10 µM
same,TGI,NCI-H226 lung,> 10 µM
same,TGI,RXF 393 renal,> 10 µM
O=C1/C(=C/c2ccc(F)cc2)CNC/C1=C\c1ccc(F)cc1,TGI,EKVX NSCLC,4.64 µM
same,TGI,HCT-15 colon,1.97 µM
same,TGI,OVCAR-3 ovarian,3.99 µM
same,TGI,SK-MEL-5 melanoma,3.02 µM
same,TGI,LOX IMVI melanoma,2.33 µM
same,TGI,CCRF-CEM leukemia,> 100 µM
same,TGI,M14 melanoma,4.35 µM
same,TGI,SK-OV-3 ovarian,29.6 µM
same,TGI,KM12 colon,1.59 µM
same,TGI,NCI-H226 lung,15.3 µM
same,TGI,RXF 393 renal,3.41 µM
COC(=O)CCCC(=O)C(=Nc1c(Cl)cccc1Cl)NNc1ccc(Cl)cc1,TGI,EKVX NSCLC,> 100 µM
same,TGI,HCT-15 colon,> 100 µM
same,TGI,OVCAR-3 ovarian,> 100 µM
same,TGI,SK-MEL-5 melanoma,> 90.9 µM
same,TGI,LOX IMVI melanoma,> 100 µM
same,TGI,CCRF-CEM leukemia,75.3 µM
same,TGI,M14 melanoma,> 100 µM
same,TGI,SK-OV-3 ovarian,> 100 µM
same,TGI,KM12 colon,> 100 µM
same,TGI,NCI-H226 lung,> 100 µM
same,TGI,RXF 393 renal,> 68.2 µM
CC1=CC(=O)N(n2c(C)n[nH]c2=O)C1=O,TGI,EKVX NSCLC,> 100 µM
same,TGI,HCT-15 colon,> 100 µM
same,TGI,OVCAR-3 ovarian,> 100 µM
same,TGI,SK-MEL-5 melanoma,> 100 µM
same,TGI,LOX IMVI melanoma,> 100 µM
same,TGI,CCRF-CEM leukemia,> 100 µM
same,TGI,M14 melanoma,> 100 µM
same,TGI,SK-OV-3 ovarian,> 100 µM
same,TGI,KM12 colon,> 100 µM
same,TGI,NCI-H226 lung,> 100 µM
same,TGI,RXF 393 renal,> 100 µM
CC1=CC=CC(C)(C)CC1(O[Si](C)(C)C)C(F)(F)F (stereo not drawn),TGI,EKVX NSCLC,> 100 µM
same,TGI,HCT-15 colon,> 100 µM
same,TGI,OVCAR-3 ovarian,> 100 µM
same,TGI,SK-MEL-5 melanoma,> 100 µM
same,TGI,LOX IMVI melanoma,> 100 µM
same,TGI,CCRF-CEM leukemia,> 100 µM
same,TGI,M14 melanoma,> 100 µM
same,TGI,SK-OV-3 ovarian,> 100 µM
same,TGI,KM12 colon,> 100 µM
same,TGI,NCI-H226 lung,> 100 µM
same,TGI,RXF 393 renal,> 100 µM
O=c1nc2c(c(-c3cccc(Cl)c3)[nH]1)COC/C2=C\c1cccc(Cl)c1,TGI,EKVX NSCLC,> 100 µM
same,TGI,HCT-15 colon,> 100 µM
same,TGI,OVCAR-3 ovarian,> 100 µM
same,TGI,SK-MEL-5 melanoma,> 100 µM
same,TGI,LOX IMVI melanoma,> 100 µM
same,TGI,CCRF-CEM leukemia,> 100 µM
same,TGI,M14 melanoma,> 100 µM
same,TGI,SK-OV-3 ovarian,> 100 µM
same,TGI,KM12 colon,> 100 µM
same,TGI,NCI-H226 lung,> 100 µM
same,TGI,RXF 393 renal,> 100 µM
O=C1OC[C@@H]2Cc3c([nH]c4ccccc34)[C@@H](c3ccc(O)cc3)N12,TGI,EKVX NSCLC,> 100 µM
same,TGI,HCT-15 colon,> 100 µM
same,TGI,OVCAR-3 ovarian,43.8 µM
same,TGI,SK-MEL-5 melanoma,33.2 µM
same,TGI,LOX IMVI melanoma,46.3 µM
same,TGI,CCRF-CEM leukemia,> 84.4 µM
same,TGI,M14 melanoma,54.7 µM
same,TGI,SK-OV-3 ovarian,> 95.1 µM
same,TGI,KM12 colon,53.1 µM
same,TGI,NCI-H226 lung,80.1 µM
same,TGI,RXF 393 renal,64.3 µM
Cc1nc(Cl)c(CBr)c(Cl)n1,TGI,EKVX NSCLC,11.8 µM
same,TGI,HCT-15 colon,4.37 µM
same,TGI,OVCAR-3 ovarian,1.97 µM
same,TGI,SK-MEL-5 melanoma,2.88 µM
same,TGI,LOX IMVI melanoma,1.77 µM
same,TGI,CCRF-CEM leukemia,0.772 µM
same,TGI,M14 melanoma,0.949 µM
same,TGI,SK-OV-3 ovarian,12.7 µM
same,TGI,KM12 colon,2.72 µM
same,TGI,NCI-H226 lung,6.73 µM
same,TGI,RXF 393 renal,5.03 µM
CN1CN(c2ccccc2)C2(CCN(CCCC3(c4cccs4)OCCO3)CC2)C1=O,TGI,EKVX NSCLC,> 100 µM
same,TGI,HCT-15 colon,> 100 µM
same,TGI,OVCAR-3 ovarian,> 100 µM
same,TGI,SK-MEL-5 melanoma,> 100 µM
same,TGI,LOX IMVI melanoma,> 100 µM
same,TGI,CCRF-CEM leukemia,> 100 µM
same,TGI,M14 melanoma,> 100 µM
same,TGI,SK-OV-3 ovarian,> 100 µM
same,TGI,KM12 colon,> 100 µM
same,TGI,NCI-H226 lung,> 100 µM
same,TGI,RXF 393 renal,> 100 µM
C(=Nc1ccc(-c2nc3ccccc3s2)cc1)c1ccco1,TGI,EKVX NSCLC,> 100 µM
same,TGI,HCT-15 colon,> 100 µM
same,TGI,OVCAR-3 ovarian,> 100 µM
same,TGI,SK-MEL-5 melanoma,> 100 µM
same,TGI,LOX IMVI melanoma,> 100 µM
same,TGI,CCRF-CEM leukemia,> 100 µM
same,TGI,M14 melanoma,> 100 µM
same,TGI,SK-OV-3 ovarian,> 100 µM
same,TGI,KM12 colon,> 100 µM
same,TGI,NCI-H226 lung,> 100 µM
same,TGI,RXF 393 renal,> 100 µM
